pIC50: −log10 of the molar value. Activity calls are given as the source filed them. No cut-off for these calls is given here.
Tests used:
Exportin-1 = Exportin-1 (Homo sapiens, UniProt O14980); experiment: Inhibition of nuclear CRM1 (unknown origin) by cell based assay
Mus musculus [1] = experiment: Anti-inflammatory activity against DSS-induced ulcerative colitis C57BL/6J mouse model assessed as reduction in body weight loss at 10 mg/kg, po administered for 7 days and measured daily; type: functional, organism-based
Mus musculus [2] = experiment: Anti-inflammatory activity against DSS-induced ulcerative colitis C57BL/6J mouse model assessed as reduction in diarrhea at 10 mg/kg, po administered for 7 days and measured daily; type: functional, organism-based
Mus musculus [3] = experiment: Anti-inflammatory activity against DSS-induced ulcerative colitis C57BL/6J mouse model assessed as restoration of colon length at 10 mg/kg, po administered for 7 days and measured on day 7; type: functional, organism-based
Mus musculus [4] = experiment: Anti-inflammatory activity against DSS-induced ulcerative colitis C57BL/6J mouse model assessed as reduction in colon swelling at 10 mg/kg, po administered for 7 days and measured on day 7; type: functional, organism-based
Mus musculus [5] = experiment: Anti-inflammatory activity against DSS-induced ulcerative colitis C57BL/6J mouse model assessed as reduction in colon inflammation at 10 mg/kg, po administered for 7 days and measured on day 7; type: functional, organism-based
Mus musculus [6] = experiment: Anti-inflammatory activity against DSS-induced ulcerative colitis C57BL/6J mouse model assessed as reduction in colon ulceration at 10 mg/kg, po administered for 7 days and measured on day 7; type: functional, organism-based
Mus musculus [7] = experiment: Anti-inflammatory activity against DSS-induced ulcerative colitis C57BL/6J mouse model assessed as reduction in TNFalpha production at 10 mg/kg, po administered for 7 days and measured on day 7 by ELISA; type: functional, organism-based
Mus musculus [8] = experiment: Anti-inflammatory activity against DSS-induced ulcerative colitis C57BL/6J mouse model assessed as reduction in IL-1beta production at 10 mg/kg, po administered for 7 days and measured on day 7 by ELISA; type: functional, organism-based
Mus musculus [9] = experiment: Anti-inflammatory activity against DSS-induced ulcerative colitis C57BL/6J mouse model assessed as reduction in IL-6 production at 10 mg/kg, po administered for 7 days and measured on day 7 by ELISA; type: functional, organism-based
Mus musculus [10] = experiment: Anti-inflammatory activity against DSS-induced ulcerative colitis C57BL/6J mouse model assessed as reduction in IL-23 production at 10 mg/kg, po administered for 7 days and measured on day 7 by ELISA; type: functional, organism-based
Mus musculus [11] = experiment: Anti-inflammatory activity against DSS-induced ulcerative colitis C57BL/6J mouse model assessed as restoration of damaged colon mucosal layer at 10 mg/kg, po administered for 7 days and measured on day 7 by ELISA; type: functional, organism-based

Exportin-1, sequence (O14980 whole entry): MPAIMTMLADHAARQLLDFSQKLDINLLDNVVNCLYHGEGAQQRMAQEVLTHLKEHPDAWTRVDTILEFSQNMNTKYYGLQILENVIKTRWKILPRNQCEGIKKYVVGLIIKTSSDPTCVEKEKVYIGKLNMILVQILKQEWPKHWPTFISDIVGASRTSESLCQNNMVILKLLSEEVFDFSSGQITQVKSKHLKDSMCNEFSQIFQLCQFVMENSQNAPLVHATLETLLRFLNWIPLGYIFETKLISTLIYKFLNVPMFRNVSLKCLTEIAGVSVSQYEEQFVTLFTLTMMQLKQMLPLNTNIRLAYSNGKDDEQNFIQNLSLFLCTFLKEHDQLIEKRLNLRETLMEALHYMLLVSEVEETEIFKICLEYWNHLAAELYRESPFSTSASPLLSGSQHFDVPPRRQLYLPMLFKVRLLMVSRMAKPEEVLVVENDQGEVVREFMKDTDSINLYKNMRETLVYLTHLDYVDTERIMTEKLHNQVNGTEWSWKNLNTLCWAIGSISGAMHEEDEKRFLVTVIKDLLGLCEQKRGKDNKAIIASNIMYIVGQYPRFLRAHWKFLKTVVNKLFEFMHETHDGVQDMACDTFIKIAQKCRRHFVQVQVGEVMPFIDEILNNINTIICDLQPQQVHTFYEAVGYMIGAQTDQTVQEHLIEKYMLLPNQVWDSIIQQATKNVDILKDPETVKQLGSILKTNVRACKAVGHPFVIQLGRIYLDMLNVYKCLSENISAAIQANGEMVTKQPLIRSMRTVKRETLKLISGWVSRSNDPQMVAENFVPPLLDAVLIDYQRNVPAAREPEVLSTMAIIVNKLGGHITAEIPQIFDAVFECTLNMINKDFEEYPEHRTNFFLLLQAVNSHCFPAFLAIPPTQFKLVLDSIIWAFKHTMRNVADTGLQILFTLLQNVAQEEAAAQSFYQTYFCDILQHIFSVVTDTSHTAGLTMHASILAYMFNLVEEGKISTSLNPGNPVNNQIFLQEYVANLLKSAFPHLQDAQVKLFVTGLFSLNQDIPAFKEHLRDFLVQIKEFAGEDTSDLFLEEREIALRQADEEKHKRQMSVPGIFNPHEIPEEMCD

Row | SMILES | pIC50 (Exportin-1) | Activity (Mus musculus [1]) | Activity (Mus musculus [2]) | Activity (Mus musculus [3]) | Activity (Mus musculus [4]) | Activity (Mus musculus [5]) | Activity (Mus musculus [6]) | Activity (Mus musculus [7]) | Activity (Mus musculus [8]) | Activity (Mus musculus [9]) | Activity (Mus musculus [10]) | Activity (Mus musculus [11])
1 | [O-][S+](/C=C/CCN=C=S)c1ccccc1 (configuration not stated) | 5.82 |  |  |  |  |  |  |  |  |  |  | 
2 | O=C(O)C[C@H]1CCc2c1[nH]c1ccc(OCc3ccc(C4CCCC4)c(C(F)(F)F)c3)cc21 |  | Active | Active | Active | Active | Active | Active | Active | Active | Active | Active | Active

From ChEMBL document CHEMBL4402590, “Small-Molecule Antagonist Targeting Exportin-1 via Rational Structure-Based Discovery” (J Med Chem, 2020)
